What was measured:
[1] = tested on: DENV-2 virus; assay: DENV antiviral assay, DENV-Luc replication in A549 cells (FIGS. 8 and 9); format: cell-based, dengue serotype 2 (DENV-2) strain 16681
Protocol: (§1) DENV-Luc reporter virus generation: The design of the pDENV-Luc infectious clone derived from dengue serotype 2 (DENV-2) strain 16681 was described in detail by Marceau et al (Marceau et al., 2016). The plasmid was linearized with Xbal and in vitro transcribed into the genomic RNA of DENV-Luc virus using the T7 Megascript Kit (Ambion) in the presence of m7G(5′)ppp(5′)G RNA Cap Structure Analog (NEB). 5 μg DENV-Luc RNA was electroporated into 2×10^6 Vero cells. The transfected cells were resuspended with Dulbecco's modified Eagle's medium (DMEM; Invitrogen) with 10% FBS and 100 U/ml penicillin-streptomycin and transferred into a T-175 flask incubated at 37° C. with 5% CO2. Supernatants were collected and replenished with fresh medium every 24 h from day 17 to 24 post-transfection, pooled together, clarified by centrifugation and stored in aliquots at −80° C. The amount of infectious DENV-Luc virus in the stock was titrated using the TCID50 assay and calculated by the Spearman & Kärber algorithm as described previously (Hierholzer and Killington, 1996).
DENV antiviral assays (For FIGS. 8 and 9): A549 cells were plated overnight at 5,000 cells/well in 96-well plates in complete DMEM and incubated for 24 h at 37° C. Cells were then treated with pyrimidine de novo synthesis inhibitors, and/or salvage inhibitors, and/or R1479 in DMEM supplemented with 20 μM uridine. Four hours after drug addition, cells were infected with DENV-2 virus at a MOI=0.1. After 72 h, DENV-Luc replication was monitored by the production of Renilla luciferase, which was measured using the Renilla-Glo Luciferase Assay System (Promega) according to the specifications of the manufacturer. For the accompanying cell viability assay, A549 cells were seeded at 5,000 cells/well in 96-well plates in complete DMEM and incubated for 24 h at 37° C. Cell were then treated with pyrimidine de novo synthesis inhibitors, and/or salvage inhibitors, and/or R1479 in DMEM supplemented with 20 μM uridine. Following 48 h treatment, cell viability was monitored by ATP levels, which was measured using the CellTiter-Glo Luciferase Assay System (Promega) according to the specifications of the manufacturer.

[2] = tested on: DENV-2 virus; assay: Pilot antiviral assay, DENV-Luc replication in A549 cells (FIG. 2); format: cell-based, dengue serotype 2 (DENV-2) strain 16681
Protocol: We therefore focused our efforts on evaluating CPU in combination with GSK983. Using an infectious clone of dengue serotype 2 (DENV-2) strain 16681 engineered to express a luciferase reporter, the efficacy and cytotoxicity of combinations of GSK983 and CPU were assessed in infected or uninfected cultures of the A549 lung carcinoma cell line (FIG. 2). […] However, a combination of 0.2 μM GSK and 250 μM CPU inhibited ca. 50% of virus replication.
as §1
Pilot Antiviral Assays (for FIG. 2): A549 cells were plated overnight at 20,000 cells/well in 24-well plates in complete DMEM and incubated for 24 h at 37° C. Cell were then treated with pyrimidine de novo synthesis and/or salvage inhibitors in DMEM supplemented with 20 μM uridine. Four hours after drug addition, cells were infected with DENV-2 virus at a MOI=0.01. After 48 h, DENV-Luc replication was monitored by the production of Renilla luciferase, which was measured using the Renilla-Glo Luciferase Assay System (Promega) according to the specifications of the manufacturer. For the accompanying cell viability assay, A549 cells were seeded into 24-well plates at a density of 20,000 cells/well incubated for 24 h at 37° C. Cell were then treated with pyrimidine de novo synthesis and/or salvage inhibitors in DMEM supplemented with 20 μM uridine. Following 48h treatment, cells were harvested, and the density of viable cells was determined by flow cytometry (FSC/SSC) using a BD Accuri C6 Flow Cytometer.

[3] = dose of 1 g/kg; cited from earlier work

## O=c1ccn([C@@H]2C=C(CO)[C@@H](O)[C@H]2O)c(=O)[nH]1 [CPU, 1-((1R,4R,5S)-4,5-dihydroxy-3-(hydroxymethyl)cyclopent-2-en-1-yl)pyrimidine-2,4(1H,3H)-dione]
[1]; CPU (500 μM) combined with 1 μM GSK983, 20 μM uridine
  dengue virus replication, combination: suppressed dengue virus
[1]; single agents, 20 μM uridine
  antiviral activity as single agent: neither GSK983 nor CPU were effective
[2]; CPU combined with GSK983, exogenous uridine
  decrease of DENV-2 titer, synergy: synergized with GSK983
[2]; CPU dose of 1 mM in combination with GSK, 20 μM exogenous uridine
  virus replication: suppressed almost completely
[2]; alone, 20 μM exogenous uridine
  inhibition of replication of DENV-2 virus, single agent: neither GSK nor CPU alone inhibited replication
[2]; combination of 0.2 μM GSK and 250 μM CPU, 20 μM exogenous uridine
  inhibition of virus replication: ca. 50%
[3]
  toxicity in mice: does not show appreciable toxicity

— US20220280513A1, “ENHANCING THE ANTIVIRAL EFFICACY OF RNA VIRUS INHIBITION BY COMBINATION WITH MODULATORS OF PYRIMIDINE METABOLISM” (The Board of Trustees of the Leland Stanford Junior …, priority 2019, published 2022)
